The values that follow come from PubChem BioAssay AID463206 (Broad Institute, 2010).

By AC50 is commonly meant the concentration giving half of the maximal activity seen.

Calls of active or inactive are those of the source.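 How the source made its calls: active means caspase luminescence falls with dose and the half-maximal concentration AC50 from the fitted curve is at or below a set limit; inconclusive means flat fit at 30 to 70% signal loss, or invalid fit; inactive means AC50 above the limit, or signal rises instead.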

The subject of this experiment is INS-1E cytokine-induced caspase-3/7, Caspase-Glo luminescence, 48 h. Description: inhibitors of cytokine-induced caspase-3/7 activity, dose response, orthogonal assay for beta-cell apoptosis protection project, INS-1E rat cells, luminescence (AID 463206).
For `CC(C)=CCc1cc2c(=O)c3c(O)c4c(cc3oc2c(O)c1O)OC(C)C4(C)C` (stereo not drawn), the AC50 was > 26 µM (inactive).
`COC(=O)[C@H](CC(C)C)N(Cc1ccccc1)S(=O)(=O)N(Cc1ccc(OC)cc1)[C@@H](CC(C)C)C(=O)OC`: the AC50 was > 26 µM (inactive).
The result for `CCn1c(-c2ccc(C)cc2)nn(CC(=O)NCCc2ccccc2)c1=S` reads > 26 µM (inactive); that for `CC(C)CN(C(=O)COC(=O)C12CC3CC(CC(Cl)(C3)C1)C2)c1c(N)n(Cc2ccccc2)c(=O)[nH]c1=O`, > 26 µM (inactive); that for `O=C(/C(=C/c1ccc(Cl)cc1)c1nc2ccccc2[nH]1)c1cccs1`, > 26 µM (inactive).
The result for `CC(C)(C)C(=O)Nc1ccc(C(=O)N/N=C/c2ccccc2OC(=O)c2ccc(Cl)cc2)cc1` reads > 26 µM (inactive); that for `O=C(Nc1cc(S(=O)(=O)N2CCCCC2)ccc1Cl)c1ccccc1NS(=O)(=O)c1ccc(F)cc1`, > 26 µM (inactive).
To `C/C(=N\NC(=O)COc1ccccc1-c1ccccc1)c1ccccn1` belongs > 26 µM (inactive); to `C#CCOCCOCCOCCNc1nc(N2CCN(C(=O)CCCCCCCCCCNC(=O)[C@@H](CCSC)n3cc(CCO)nn3)CC2)nc(N2CCN(C(=O)CCCCCCCCCCNC(=O)[C@H]([C@@H](C)CC)n3cc(CCCCCN)nn3)CC2)n1`, > 26 µM (inactive); to `Cc1ccc(Nc2c(-c3ccccn3)nc3cccc(C)n23)cc1`, > 26 µM (inactive).
`O=C(Nc1cccc(C(F)(F)F)c1)Nc1ccc(N2CCCC2)c(S(=O)(=O)Nc2ccccc2Cl)c1`: the AC50 is > 26 µM (inactive).
To `O=[N+]([O-])c1ccc(O)c(/C=N/NC(=S)Nc2ccc(Cl)cc2Cl)c1` belongs > 26 µM (inactive); to `CCOC(=O)C(=CNc1ccc(C(O)(C(=O)OCC)C(F)(F)F)cc1C)C(=O)OCC` (stereo not drawn), > 26 µM (inactive).
With `COc1nnc(-c2ccc(N3CCCCC3)c(NC(=O)C3CCCCC3)c2)c2ccccc12`, the AC50 is > 26 µM (inactive).
To `Cc1ccc(NS(=O)(=O)c2cc([N+](=O)[O-])ccc2NNC(=S)Nc2cc(C)ccc2C)c(C)c1` belongs > 26 µM (inactive).
The result for `CCn1c(SCC(=O)Nc2cc(C)on2)nc2sc3c(c2c1=O)CCCC3` reads > 12 µM (inactive); that for `Cc1ccccc1Cn1ccc(=NCc2ccccc2)cc1`, > 26 µM (inactive).
Regarding `O=C(N/N=C(\c1ccccc1)c1ccccn1)c1ccccc1Cl`, the AC50 was > 26 µM (inactive).
To `CN1/C(=C\C(=O)COC(=O)c2ccc(O)c(O)c2)C(C)(C)c2ccccc21` belongs > 26 µM (inactive); to `CC(=O)c1c(C)[nH]c(C(=O)OCC(=O)Nc2ccc(C)cc2[N+](=O)[O-])c1C`, > 26 µM (inactive); to `c1ccc(-c2nc(NCc3ccco3)c3ccccc3n2)nc1`, > 26 µM (inactive).
Turning to `Cc1ccc(C(=O)N2N=C(c3ccc(Br)cc3)CC2c2ccccc2O)cc1` (stereo not drawn), the AC50 is > 26 µM (inactive).
To `Cc1ccc(Cl)cc1N1CCN(C(=O)CSc2nnc3n2C(C)(C)Cc2ccccc2-3)CC1` belongs > 26 µM (inactive).
The result for `O=C(N/N=C/c1c(O)ccc2ccccc12)c1[nH]ncc1Br` reads > 26 µM (inactive); that for `O=C(CNC(=O)c1ccc2c(c1)OCO2)N/N=C/c1cc(Br)ccc1O`, > 26 µM (inactive).
The result for `CCCCCc1ccc(OCCCC[n+]2ccc(C)cc2)c(CCCCC)c1` reads > 26 µM (inactive); that for `COc1ccc(NS(=O)(=O)c2ccc(-c3coc(C)n3)cc2)cc1OC`, > 26 µM (inactive).
Regarding `CC(=O)C1=C(c2ccc(Br)cc2)C(=O)c2ccccc2C1=O`, the AC50 is > 26 µM (inactive).
The result for `O=C(NNC(=O)C12CC3CC(CC(C3)C1)C2)c1ccccn1` reads > 26 µM (inactive); that for `O=C(Nc1ccc(-c2nc3ccccc3o2)cc1)c1ccc(N2CCOCC2)c([N+](=O)[O-])c1`, > 26 µM (inactive).
As to `CC(C)(C)c1ccc(C2CC2C(=O)N/N=C\c2ccc[nH]2)cc1` (stereo not drawn), the AC50 was > 26 µM (inactive).
`C=CCn1cc(/C=C/c2cc[n+](C)cc2)c2ccccc21`: the AC50 was > 26 µM (inactive).
To `C/C(=N\NC(=O)Cc1ccc(Cl)cc1)c1ccccn1` belongs > 26 µM (inactive).
To `Cc1ccc(NC(=O)c2cc(S(=O)(=O)NCCC3=CCCCC3)ccc2F)cc1` belongs > 26 µM (inactive).
Turning to `CN1/C(=C\C(=S)NC(=O)c2cccc(Br)c2)C(C)(C)c2ccccc21`, the AC50 is > 26 µM (inactive).
To `Cc1nc2c3cc(F)ccc3n(Cc3ccccc3)c2s1` belongs > 26 µM (inactive); to `O=C1C=C(Nc2ccccc2O)c2ccccc2C1=O`, > 26 µM (inactive).
The result for `Cc1sc2ncnc(N3CCN(S(=O)(=O)c4ccc(C(C)(C)C)cc4)CC3)c2c1C` reads > 26 µM (inactive).
The result for `CC(=O)Nc1ccc(C2=CC(=O)C[C@H](c3ccc4c(c3)OCO4)C2)cc1` reads > 26 µM (inactive).
Take `Cc1ccc(O)c(NC(=S)NC(=O)c2ccc(-c3ccc(Cl)cc3)o2)c1`: the AC50 was > 26 µM (inactive).
To `CN(C)c1ccc(/C=C/c2ccc3ccccc3n2)cc1` belongs > 26 µM (inactive); to `O=C(CN1CCOCC1)N/N=C/c1c(O)ccc2ccccc12`, > 26 µM (inactive).
The result for `CC(=O)N1c2ccc(S(=O)(=O)N3CCC(C(=O)N4CCN(c5cccc(C(F)(F)F)c5)CC4)CC3)cc2CC1C` (stereo not drawn) reads > 26 µM (inactive).
The result for `CCN(CC)CCOC(=O)c1ccc(N/C=C(/C#N)c2nc(-c3ccc4c(c3)OCO4)cs2)cc1` reads > 26 µM (inactive); that for `CCCCCCSc1cccc(-c2nc3ccccn3c2NCc2ccccc2)c1`, > 26 µM (inactive).
As to `CCOC(=O)c1sc(SC)c2c1CCC/C2=N/OC`, the AC50 was > 26 µM (inactive).
To `O=S(=O)(c1ccc(Cl)cc1)N1CCN(c2ncnc3sccc23)CC1` belongs > 26 µM (inactive).
As for `CC(=O)c1ccc(OCc2cc(C(=O)N3CCCCC3c3cccnc3)no2)cc1` (stereo not drawn), the AC50 was > 26 µM (inactive).
To `CCN1/C(=C/c2ccc3cc(C)ccc3[n+]2CC)Sc2ccc3sccc3c21` belongs > 26 µM (inactive); to `CCOc1ccc(-n2c(-c3ccc(OC)cc3)c[n+]3c2CCCCC3)cc1`, > 26 µM (inactive); to `CCOc1cc(N2CCOCC2)c(OCC)cc1NC(=O)COc1cccc2cccnc12`, > 26 µM (inactive).
Consider `O=C(NNc1ccccc1Br)C(O)(c1cccc(C(F)(F)F)c1)c1cccc(C(F)(F)F)c1`, for which the AC50 was > 26 µM (inactive).
For `CCCCCc1ccc(OCCCC[n+]2ccccc2)c(CCCCC)c1`, the AC50 was > 26 µM (inactive).
The result for `Cn1c(-c2ccccc2)cc2c3no[n+]([O-])c3ccc21` reads > 26 µM (inactive); that for `N#CC1=C(N)Oc2c(ccc3cccnc23)C1c1cccnc1` (stereo not drawn), > 26 µM (inactive); that for `O=C(c1ccccc1)c1c2c(cc3sc4ccccc4[n+]13)-c1cccc3cccc-2c13`, > 26 µM (inactive).
In the case of `CC(C)(C)C1C/C(=C/c2ccccn2)C(=O)/C(=C/c2ccccn2)C1` (stereo not drawn), the AC50 is > 26 µM (inactive).
To `CNC[C@@H](CC1CCCCC1)NC[C@H](CC(C)C)NCCc1cccc(C(F)(F)F)c1` belongs > 26 µM (inactive).
